Measurements from US20020028938A1, “Prostaglandin endoperoxide H synthase biosynthesis inhibitors” (priority 1997, published 2002).

Key:
[1] = biological target: T1, human amnionic whole cell cyclooxygenase-2 (WISH cells) (Homo sapiens, UniProt P35354); assay: IL-1β induced PGE2 production in WISH cells; type: cell-based; settings: for IC50: read-out: Wish IC50 (parenthetical value); for inhibition at 0.01 µM / inhibition at 1 µM / inhibition at 0.1 µM: read-out: Wish % Inhib. at Dose
T1 construct: endogenous in cells; host or cells: human amnionic WISH cells, induced with IL-1beta
T1 sequence (P35354 18-604): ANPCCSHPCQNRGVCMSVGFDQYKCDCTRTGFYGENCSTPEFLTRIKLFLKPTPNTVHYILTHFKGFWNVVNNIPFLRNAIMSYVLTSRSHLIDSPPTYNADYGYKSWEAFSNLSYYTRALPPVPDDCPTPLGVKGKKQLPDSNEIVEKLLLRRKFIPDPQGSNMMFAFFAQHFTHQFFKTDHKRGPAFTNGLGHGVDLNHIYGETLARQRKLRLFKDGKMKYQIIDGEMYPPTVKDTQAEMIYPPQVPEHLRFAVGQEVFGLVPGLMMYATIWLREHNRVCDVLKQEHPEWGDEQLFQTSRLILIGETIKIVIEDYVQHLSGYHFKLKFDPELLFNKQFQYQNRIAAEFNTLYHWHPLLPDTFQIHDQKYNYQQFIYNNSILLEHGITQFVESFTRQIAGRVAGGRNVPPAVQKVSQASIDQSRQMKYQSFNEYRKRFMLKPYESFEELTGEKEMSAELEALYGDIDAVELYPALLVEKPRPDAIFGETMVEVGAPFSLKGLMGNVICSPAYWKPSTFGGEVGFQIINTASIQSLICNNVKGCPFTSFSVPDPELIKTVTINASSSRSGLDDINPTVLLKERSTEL
Method: EIA reagents for prostaglandin determination were purchased from Perseptive Diagnostics, (Cambridge, Mass.). Prostaglandin E2 (PGE2) levels in lavage fluids were determined after the samples were dried under nitrogen and reconstituted with assay buffer. PGE2 levels in enzyme assays or cell culture media were measured against standards prepared in the same milieu. The immunoassays were conducted as recommended by the manufacturer. The EIA was conducted in 96 well microtiter plates (Nunc Roskilde, Denmark) and optical density was measured using a microplate reader (Vmax, Molecular Devices Corp., Menlo Park, Calif.).
Human amnionic WISH cells were grown to 80% confluence in 48 well plates. Following removal of the growth medium and two washings with Geys Balanced Salt Solutn, 5 ng IL-1β /ml (UBI, Lake Placid, N.Y.) was added to the cells with or without test compound in DMSO (0.01% v/v) in Neuman-Tytell Serumless Medium (GIBCO, Grand Island, N.Y.).

[2] = biological target: T2, recombinant human Cox-2 (r-hu Cox-2) (Homo sapiens, UniProt P35354); assay: Recombinant human PGHS-2 enzyme assay (RHUCX2); type: biochemical; settings: for IC50: read-out: RHUCX2 IC50 (parenthetical value)
T2 construct: made in house; host or cells: baculovirus/Sf9 insect cells (microsomes)
T2 sequence (P35354 18-604): T1 sequence (P35354 18-604)
Procedure, shortened: (§1)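 Prostaglandin biosynthesis was measured as PGE2 output, read by enzyme immunoassay after a 2.5-minute room-temperature reaction stopped with HCl and neutralized with NaOH.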

[3] = biological target: T3, recombinant human Cox-1 (r-hu Cox1) (Homo sapiens, UniProt P23219); assay: Recombinant human PGHS-1 enzyme assay (RHUCX1); type: biochemical; settings: 100 μM; read-out: RHUCX1 % Inh. at Dose
T3 construct: made in house; host or cells: baculovirus/Sf9 insect cells (microsomes)
T3 sequence (P23219 24-599): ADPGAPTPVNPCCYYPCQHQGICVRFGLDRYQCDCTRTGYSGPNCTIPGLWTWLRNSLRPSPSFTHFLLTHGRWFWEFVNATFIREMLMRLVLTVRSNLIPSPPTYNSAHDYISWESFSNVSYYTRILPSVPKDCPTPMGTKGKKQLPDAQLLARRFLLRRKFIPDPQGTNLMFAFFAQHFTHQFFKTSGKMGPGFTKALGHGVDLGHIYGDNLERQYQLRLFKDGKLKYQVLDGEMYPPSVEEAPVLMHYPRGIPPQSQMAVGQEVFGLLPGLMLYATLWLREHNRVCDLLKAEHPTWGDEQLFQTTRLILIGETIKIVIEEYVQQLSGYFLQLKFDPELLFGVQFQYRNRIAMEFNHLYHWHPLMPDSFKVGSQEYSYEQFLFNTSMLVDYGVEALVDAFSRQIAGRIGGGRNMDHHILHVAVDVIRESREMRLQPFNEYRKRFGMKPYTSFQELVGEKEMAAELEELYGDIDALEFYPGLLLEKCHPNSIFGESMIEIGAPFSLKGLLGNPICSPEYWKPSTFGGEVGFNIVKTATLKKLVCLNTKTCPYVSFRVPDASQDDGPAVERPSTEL
Procedure, shortened: as §1

[4] = read-out: RHUCX2 % Inh. at Dose

| SMILES | melting point [°C] | IC50 [1] [nM] | inhibition at 100 µM [3] [%] | further results |
| --- | --- | --- | --- | --- |
| CS(=O)(=O)c1ccc(-c2cnn(CC(F)(F)F)c(=O)c2OC2CCCC2)cc1 [Example 85, 2-(2,2,2-Trifluoroethyl)-4-cyclopentyloxy-5-[4-(methylsulfonyl)phenyl]-3(2H)-pyridazinone] | 148 to 150 | 470 |  |  |
| CC(C)Nc1c(-c2ccc(S(C)(=O)=O)cc2)cnn(CC(F)(F)F)c1=O [Example 86, 2-(2,2,2-Trifluoroethyl)-4-(2-propylamino)-5-[4-(methylsulfonyl)phenyl]-3(2H)-pyridazinone] |  |  |  | inhibition at 0.01 µM [1]: 47%; inhibition at 1 µM [1]: 52% |
| CS(=O)(=O)c1ccc(-c2cnn(-c3ccc(F)c(Cl)c3)c(=O)c2-c2ccc(Cl)cc2)cc1 [Example 102, 2-(3-Chloro-4-fluorophenyl)-4-(4-chlorophenyl)-5-[4-(methylsulfonyl)phenyl]-3(2H)-pyridazinone] | 205 | 50 |  |  |
| NS(=O)(=O)c1ccc(-c2cnn(C3C=CCCC3)c(=O)c2-c2ccc(F)cc2)cc1 (stereo not shown) [Example 126] |  | 50 |  |  |
| CS(=O)(=O)c1ccc(-c2cnn(C3CCc4ccccc43)c(=O)c2-c2ccc(F)cc2)cc1 (stereo not shown) [Example 129, 2-(2,3-Dihydro-1H-inden-1-yl)-4-(4-fluorop,henyl)-5-[4-(methylsulfonyl)phenyl]-3(2H)-pyridazinone] | 128 to 130 | 40 |  |  |
| NS(=O)(=O)c1ccc(-c2cnn(Cc3cc(F)c(F)cc3F)c(=O)c2-c2ccc(F)cc2)cc1 [Example 152, 2-(2,4,5-Trifluorobenzyl)-4-(4-fluorophenyl)-5-[4-(aminosulfonyl)phenyl]-3(2H)-pyridazinone] | 236 to 238 | 29 |  |  |
| C=Cc1cccc(-n2ncc(-c3ccc(S(C)(=O)=O)cc3)c(-c3ccc(F)cc3)c2=O)c1 [Example 162, 2-(3-Vinylphenyl)-4-(4-fluorophenyl)-5-[4-(methylsulfonyl)phenyl]-3(2H)-pyridazinone] | 182 to 183 | 34 |  |  |
| CS(=O)(=O)c1ccc(-c2cnn(-c3ccc(Cl)cc3F)c(=O)c2-c2ccc(F)cc2)cc1 [Example 191, 2-(4-Chloro-2-fluorophenyl)-4-(4-fluorophenyl)-5-[4-(methylsulfonyl)phenyl]-3(2H)-pyridazinone] | 250 to 260 | 60 |  |  |
| CC(C)Oc1c(-c2ccc(S(C)(=O)=O)cc2)cnn(-c2cccc(Br)c2)c1=O [Example 203, 2-(3-Bromophenyl)-4-(2-propoxy)-5-[4-(methylsulfonyl)phenyl]-3(2H)-pyridazinone] | 130 to 132 |  |  | inhibition at 0.1 µM ([1]; 0.1 μM): 23%; inhibition at 1 µM [1]: 77% |
| CS(=O)(=O)c1ccc(-c2cnn(-c3cccc(Cl)c3)c(=O)c2COc2ccc(F)cc2)cc1 [Example 207, 2-(3-Chlorophenyl)-4-(4-fluorophenoxmethyl)-5-[4-(methylsulfonyl)phenyl]-3(2H)-pyridazinone] |  | 68 |  | inhibition at 0.1 µM [2, 4]: 81%; inhibition at 1 µM [2, 4]: 97% |
| CS(=O)(=O)c1ccc(-c2cnn(CC(F)(F)F)c(=O)c2OCc2ccco2)cc1 [Example 271, 2-(2,2,2-Trifluoroethyl)-4-(2-furylmethoxy)-5-[4-(methylsulfonyl)phenyl]-3(2H)-pyridazinone] | 113 to 115 |  |  | inhibition at 0.1 µM ([1]; 0.1 μM): 15%; inhibition at 1 µM [1]: 52% |
| CS(=O)(=O)c1ccc(-c2cnn(Cc3ccccc3)c(=O)c2-c2ccsc2)cc1 [Example 317, 2-Benzyl-4-(3-thienyl)-5-[4-(methylsulfonyl)phenyl]-3(2H)-pyridazinone] |  | 27 |  |  |
| CS(=O)(=O)c1ccc(-c2cnn(Cc3ccccc3)c(=O)c2-c2cccc([N+](=O)[O-])c2)cc1 [Example 321, 2-Benzyl-4-(3-nitrophenyl)-5-[4-(methylsulfonyl)phenyl]-3(2H)-pyridazinone] |  |  | 4 | IC50 [2]: 192 nM; inhibition at 0.01 µM [1]: 50% |
| COc1ccccc1-c1c(-c2ccc(S(C)(=O)=O)cc2)cnn(Cc2ccccc2)c1=O [Example 324, 2-Benzyl-4-(2-methoxyphenyl)-5-[4-(methylsulfonyl)phenyl]-3(2H)-pyridazinone] |  | 47 |  |  |
| COc1ccc(-c2c(-c3ccc(S(C)(=O)=O)cc3)cnn(Cc3ccccc3)c2=O)cc1F [Example 326, 2-Benzyl-4-(3-fluoro-4-methoxyphenyl)-5-[4-(methylsulfonyl)phenyl]-3(2H)-pyridazinone] |  | 50 |  |  |
| CC(C)CCOc1c(-c2ccc(S(N)(=O)=O)cc2)cnn(C(C)(C)C)c1=O [Example 399] |  |  |  | Wish % Inhib. at Dose (μM) ([1]; 0.03 μM): 39 @ 0.03%; Wish % Inhib. at Dose (μM) ([1]; 0.1 μM): 82 @ 0.1% |
| C=C(C)CCOc1c(-c2ccc(S(C)(=O)=O)cc2)cnn(-c2ccc(F)cc2)c1=O [Example 425, 2-(4-Fluorophenyl)-4-(3-methyl-3-butenoxy)-5-[4-(methylsulfonyl)phenyl]-3(2H)-pyridazinone] | 109 to 111 |  | 12 | inhibition at 0.01 µM [2, 4]: 31%; inhibition at 0.1 µM [2, 4]: 69% |
| CC(C)=CCCOc1c(-c2ccc(S(C)(=O)=O)cc2)cnn(-c2cccc(Cl)c2)c1=O [Example 426, 2-(3-Chlorophenyl)-4-(4-methyl-3-pentenyloxy)-5-[4-(methylsulfonyl)phenyl]-3(2H)-pyridaznone] | 110 to 111 |  | 1 | IC50 [2]: 57 nM |
| C=CCC(C)COc1c(-c2ccc(S(C)(=O)=O)cc2)cnn(-c2ccc(F)cc2)c1=O (stereo not shown) [Example 434, 2-(4-Fluorophenyl)-4-(2-methyl-4-pentenyl-1-oxy)-5-[4-(methylsulfonyl)phenyl]-3(2H)-pyridazinone] | 106 to 107 |  | 0 | IC50 [2]: 81 nM |
| CC(C)CCCOc1c(-c2ccc(S(C)(=O)=O)cc2)cnn(-c2ccc(F)c(F)c2)c1=O [Example 437, 2-(3,4-Difluorophenyl)-4-(4-methyl-1-pentyloxy)-5-[4-(methylsulfonyl)phenyl]-3(21)-pyridazinone] | 98 to 99 |  | 16 | IC50 [2]: 124 nM |
| CC(C)CC(C)Oc1c(-c2ccc(S(C)(=O)=O)cc2)cnn(-c2ccc(F)c(F)c2)c1=O (stereo not shown) [Example 438] | 132 to 133 |  | 0 | IC50 [2]: 127 nM |
| CS(=O)(=O)c1ccc(-c2cnn(-c3ccc(F)c(F)c3)c(=O)c2OCCC2C=CCC2)cc1 (stereo not shown) [Example 440, 2-(3,4-Difluorophenyl)-4-(2-cyclopent-2-enyl-1-ethoxy)-5-[4-(methylsulfonyl)phenyl]-3(2H)-pyridazinone] | 126 to 127 |  | 20 | inhibition at 0.01 µM [2, 4]: 22%; inhibition at 0.1 µM [2, 4]: 59%; inhibition at 1 µM [2, 4]: 84% |
| CON=C(Cn1ncc(-c2ccc(S(C)(=O)=O)cc2)c(-c2ccc(F)cc2)c1=O)c1ccccc1 [Example 443, 2-(2-Methoxyimino-2-phenylethyl)-4-(4-fluorophenyl)-5-[4-(methylsulfonyl)phenyl]-3(2H)-pyridazinone] | 95 to 99 |  | 35 | inhibition at 0.01 µM [2, 4]: 74%; inhibition at 0.1 µM [2, 4]: 86% |
| CC(C)CCCc1c(-c2ccc(S(C)(=O)=O)cc2)cnn(-c2ccc(F)c(F)c2)c1=O [Example 444, 2-(3,4-Difluorophenyl)-4-(4-methylpentyl)-5-[4-(methylsulfonyl)phenyl]-3(2H)-pyridazinone] | 111 to 113 |  | 0 | inhibition at 0.1 µM [2, 4]: 62%; inhibition at 1 µM [2, 4]: 83%; inhibition at 10 µM ([2]; 10 μM, read-out: RHUCX2 % Inh. at Dose): 14% |
| CC(C)CCOc1c(-c2ccc(S(C)(=O)=O)cc2)cnn(CC(F)(F)F)c1=O [Example 447, 2-(2,2,2-Trifluoroethyl)-4-(3-methylbutoxy)-5-[4-(methylsulfonyl)phenyl]-3(2H)-pyridazinone] | 111 to 113 |  | 0 | inhibition at 0.01 µM [2, 4]: 35%; inhibition at 0.1 µM [2, 4]: 57%; inhibition at 1 µM [2, 4]: 90% |
